Assay [1] has as its target T1, human metabotropic glutamate receptor mGluR5 (Homo sapiens, UniProt P41594).
T1 construct: expressed in transfected cells; host or cells: CHO-K1 (h5CHO), IPTG-inducible
Briefly: Cytosolic calcium studies with stably transfected cells (h5CHO), functional assay of mGluR5 receptors. The class given is cell-based. Particulars: for h left shift / IC50: h5CHO cells; for EC50: positive modulators, h5CHO cells preincubated with modulator, stimulated by an EC20 concentration of L-glutamate, read-out: hEC50; for IC50: Table A2, negative modulation, compounds added 5 minutes before L-quisqualic acid (~80% of the maximal signal), read-out: hIC50. Put shortly:
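IPTG-induced h5CHO (CHO-K1 expressing human mGluR5) loaded with calcium dye; compounds (0.5% DMSO) added 5 min before agonist. NAM IC50 against L-quisqualate at ~EC80; PAM EC50 with EC20 L-glutamate. FLIPR fluorescence, max-minus-min, % of maximal response, logistic fit.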

The target of the next assay is T2, mGluR5 receptors (Rattus norvegicus, UniProt P31424).
T2 construct: Primary astrocyte cultures are prepared from cortices of newborn rats; endogenous in cells; host or cells: primary cortical astrocytes from Sprague-Dawley rat pups (2-4 d old)
T2 sequence (P31424 21-1203): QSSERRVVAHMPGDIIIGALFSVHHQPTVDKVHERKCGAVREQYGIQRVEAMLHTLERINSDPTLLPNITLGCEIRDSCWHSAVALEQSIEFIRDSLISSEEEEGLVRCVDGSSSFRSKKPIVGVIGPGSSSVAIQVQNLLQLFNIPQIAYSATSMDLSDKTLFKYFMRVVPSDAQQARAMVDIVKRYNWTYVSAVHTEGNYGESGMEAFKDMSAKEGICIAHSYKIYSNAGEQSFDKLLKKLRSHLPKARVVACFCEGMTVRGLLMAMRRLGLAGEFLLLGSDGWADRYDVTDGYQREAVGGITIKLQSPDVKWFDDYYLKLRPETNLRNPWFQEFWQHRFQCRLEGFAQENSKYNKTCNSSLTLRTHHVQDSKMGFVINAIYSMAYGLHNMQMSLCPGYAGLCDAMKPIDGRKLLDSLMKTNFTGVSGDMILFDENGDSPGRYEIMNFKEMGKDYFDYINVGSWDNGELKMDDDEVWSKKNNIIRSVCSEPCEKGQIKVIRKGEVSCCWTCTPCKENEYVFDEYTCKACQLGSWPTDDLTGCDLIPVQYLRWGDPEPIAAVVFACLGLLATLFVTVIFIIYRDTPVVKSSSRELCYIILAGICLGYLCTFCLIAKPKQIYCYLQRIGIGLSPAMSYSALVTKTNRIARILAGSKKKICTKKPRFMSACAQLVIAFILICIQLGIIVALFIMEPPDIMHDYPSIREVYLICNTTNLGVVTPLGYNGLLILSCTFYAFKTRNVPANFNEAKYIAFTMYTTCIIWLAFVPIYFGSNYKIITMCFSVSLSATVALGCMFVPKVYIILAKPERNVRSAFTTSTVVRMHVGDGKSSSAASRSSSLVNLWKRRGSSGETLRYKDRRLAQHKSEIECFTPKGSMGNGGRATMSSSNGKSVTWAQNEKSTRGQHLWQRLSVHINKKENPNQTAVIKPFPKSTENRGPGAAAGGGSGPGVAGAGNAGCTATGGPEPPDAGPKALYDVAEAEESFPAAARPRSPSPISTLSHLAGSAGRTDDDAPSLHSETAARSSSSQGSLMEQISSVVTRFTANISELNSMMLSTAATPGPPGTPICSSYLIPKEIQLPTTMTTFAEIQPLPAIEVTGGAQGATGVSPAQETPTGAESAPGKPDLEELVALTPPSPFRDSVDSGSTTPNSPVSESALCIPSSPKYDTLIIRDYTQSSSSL
Briefly: Cytosolic calcium studies with astrocytes (FLIPR), functional assay of mGluR5 receptors. Format: cell-based. Particulars: for IC50: Table A2, pre-incubated 10 minutes before L-quisqualate (100 nM), read-out: rIC50. The essentials: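 Rat cortical primary astrocytes at 14-15 DIV, loaded with Ca-sensitive dye for 2 h at RT, pH 7.3 buffer; FLIPR fluorescence after L-quisqualate (100 nM), antagonists pre-incubated 10 min. PAMs: quisqualate curves ± 10 µM modulator, or modulator curves at fixed 10-30 nM quisqualate. Max-min responses as % control, logistic fit.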

[2] abbreviates: Table A1, left shift of agonist EC50, dose response curves in the presence of 10 µM modulator or vehicle.
The mark [3] stands for this setting: Table A1, left shift of quisqualate EC50 in the presence and absence of 10 µM modulator.
The mark [4] stands for this setting: Table A1, positive modulators, fixed concentration of quisqualate (normally 10-30 nM), read-out: rEC50.

The values below come from patent EP2650284A1, “Heterocyclic derivatives as metabotropic glutamate receptor modulators” (Merz Pharma GmbH & Co. KGaA, priority 2012, dated 2013).

Read-outs that look alike come from different tables or passages of the source.

T1 sequence (P41594 21-1212): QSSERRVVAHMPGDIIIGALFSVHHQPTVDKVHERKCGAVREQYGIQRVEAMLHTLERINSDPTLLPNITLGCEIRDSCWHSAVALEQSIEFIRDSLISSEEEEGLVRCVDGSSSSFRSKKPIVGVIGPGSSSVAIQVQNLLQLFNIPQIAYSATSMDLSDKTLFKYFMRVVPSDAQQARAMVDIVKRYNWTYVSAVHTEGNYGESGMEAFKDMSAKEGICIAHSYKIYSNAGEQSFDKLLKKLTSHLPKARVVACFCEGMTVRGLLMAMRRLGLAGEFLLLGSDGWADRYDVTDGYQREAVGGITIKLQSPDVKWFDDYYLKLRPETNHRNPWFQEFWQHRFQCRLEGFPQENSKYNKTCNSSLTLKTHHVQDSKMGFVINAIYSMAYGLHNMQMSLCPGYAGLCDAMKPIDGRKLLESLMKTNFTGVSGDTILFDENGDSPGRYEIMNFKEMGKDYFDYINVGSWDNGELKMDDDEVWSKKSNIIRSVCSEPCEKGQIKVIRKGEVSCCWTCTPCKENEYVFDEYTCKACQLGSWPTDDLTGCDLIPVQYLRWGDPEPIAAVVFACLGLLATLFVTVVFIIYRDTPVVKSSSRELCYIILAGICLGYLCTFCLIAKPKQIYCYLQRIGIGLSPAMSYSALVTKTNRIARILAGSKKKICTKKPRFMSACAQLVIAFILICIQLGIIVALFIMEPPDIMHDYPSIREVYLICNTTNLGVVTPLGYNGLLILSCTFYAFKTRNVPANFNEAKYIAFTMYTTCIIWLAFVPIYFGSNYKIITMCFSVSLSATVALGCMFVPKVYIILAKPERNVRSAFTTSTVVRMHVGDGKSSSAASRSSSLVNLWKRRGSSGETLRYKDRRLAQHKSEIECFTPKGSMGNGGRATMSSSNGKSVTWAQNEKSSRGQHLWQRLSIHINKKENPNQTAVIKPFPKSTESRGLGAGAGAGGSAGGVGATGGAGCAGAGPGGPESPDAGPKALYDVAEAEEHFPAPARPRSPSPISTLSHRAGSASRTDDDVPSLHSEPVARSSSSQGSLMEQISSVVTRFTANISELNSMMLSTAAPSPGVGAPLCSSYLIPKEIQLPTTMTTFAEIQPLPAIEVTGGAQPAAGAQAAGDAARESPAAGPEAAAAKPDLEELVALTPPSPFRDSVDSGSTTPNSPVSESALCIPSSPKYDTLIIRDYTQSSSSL

In the case of `CC(C)COC(=O)N1CCc2ncc(C#Cc3ccccc3)cc2C1` [Example 41, Isobutyl 3-(phenylethynyl)-7,8-dihydro-1,6-naphthyridine-6(5H)-carboxylate], in assay [1] (setting [2]), the h left shift is 2.2-fold. Moreover, the EC50 stood at 146 nM in assay [1] (Table A1) and 4.36 nM at mGluR5 receptors (setting [4]). Also, the r left shift at mGluR5 receptors (setting [3]) was 1.2-fold.
The corresponding values for `CC(C)(C)OC(=O)N1CCc2ncc(C#Cc3ccccc3)cc2C1` [Example 42, tert-Butyl 3-(phenylethynyl)-7,8-dihydro-1,6-naphthyridine-6(5H)-carboxylate] are 3.1-fold, 281 nM, 131 nM and 1.9-fold.
Take `O=C(Oc1ccccc1)N1CCc2ncc(C#Cc3ccccc3)cc2C1` [Example 43, Phenyl 3-(phenylethynyl)-7,8-dihydro-1,6-naphthyridine-6(5H)-carboxylate]: the h left shift in assay [1] (setting [2]) is recorded as 2.4-fold. Also, the figures for the EC50 (in assay [1] (Table A1); on mGluR5 receptors (setting [4])) were 381 nM and 38 nM, respectively.
As for `CN(C)C(=O)N1CCc2ncc(C#Cc3cccc(F)c3)cc2C1` [Example 45, 3-((3-Fluorophenyl)ethynyl)-N,N-dimethyl-7,8-dihydro-1,6-naphthyridine-6(5H)-carboxamide], the figures for the IC50 (in assay [1]; at mGluR5 receptors) were 114 nM and 55.9 nM, respectively.
For `CN(C)C(=O)N1CCc2ncc(C#Cc3cccc(C#N)c3)cc2C1` [Example 46, 3-((3-Cyanophenyl)ethynyl)-N,N-dimethyl-7,8-dihydro-1,6-naphthyridine-6(5H)-carboxamide] the same measures were 50.8 nM and 20.8 nM.
Take `O=C(N1CCc2ncc(C#Cc3ccccc3)cc2C1)N(CC(F)(F)F)CC(F)(F)F` [Example 49, 3-(Phenylethynyl)-N,N-bis(2,2,2-trifluoroethyl)-7,8-dihydro-1,6-naphthyridine-6(5H)-carboxamide]: the h left shift in assay [1] (setting [2]) is given as 1.7-fold. Besides, the r left shift on mGluR5 receptors (setting [3]) was 2.3-fold. The EC50 at mGluR5 receptors (setting [4]) worked out at 11.8 nM.
Turning to `O=C(N1CCCCC1)N1CCc2ncc(C#Cc3ccccc3)cc2C1` [Example 50, (3-(Phenylethynyl)-7,8-dihydro-1,6-naphthyridin-6(5H)-yl)(piperidin-1-yl)methanone], the h left shift in assay [1] (setting [2]) is reported as 2.1-fold. The EC50 in assay [1] (Table A1) turned out to be 843 nM. In addition, the r left shift on mGluR5 receptors (setting [3]) was 1.9-fold.
Turning to `N#Cc1cccc(C#Cc2cnc3c(c2)CN(C(=O)N2CCCCC2)CC3)c1` [Example 51, 3-((6-(Piperidine-1-carbonyl)-5,6,7,8-tetrahydro-1,6-naphthyridin-3-yl)ethynyl)benzonitrile], the IC50 in assay [1] worked out at 740 nM; on mGluR5 receptors it was 2330 nM.
As to `CN(C)S(=O)(=O)N1CCc2ncc(C#Cc3ccccc3)cc2C1` [Example 52, N,N-Dimethyl-3-(phenylethynyl)-7,8-dihydro-1,6-naphthyridine-6(5H)-sulfonamide], the h left shift in assay [1] (setting [2]) is 2.0-fold. In addition, the figures for the EC50 (in assay [1] (Table A1); at mGluR5 receptors (setting [4])) were 240 nM and 83.1 nM, respectively. The r left shift on mGluR5 receptors (setting [3]) is recorded as 1.8-fold.
Regarding `O=S(=O)(N1CCCC1)N1CCc2ncc(C#Cc3ccccc3)cc2C1` [Example 53, 3-(Phenylethynyl)-6-(pyrrolidin-1-ylsulfonyl)-5,6,7,8-tetrahydro-1,6-naphthyridine], the h left shift in assay [1] (setting [2]) was 1.6-fold. The r left shift at mGluR5 receptors (setting [3]) was 2.8-fold. Also, the EC50 at mGluR5 receptors (setting [4]) was found to be 152 nM.
As to `O=S(=O)(N1CCCCC1)N1CCc2ncc(C#Cc3ccccc3)cc2C1` [Example 54, 3-(Phenylethynyl)-6-(piperidin-1-ylsulfonyl)-5,6,7,8-tetrahydro-1,6-naphthyridine], in assay [1] (setting [2]), the h left shift is reported as 2.0-fold. Further, the values for the EC50 (in assay [1] (Table A1); at mGluR5 receptors (setting [4])) were 726 nM and 472 nM, respectively. Besides, the r left shift on mGluR5 receptors (setting [3]) is 2.5-fold.
The corresponding values for `O=S(=O)(N1CCOCC1)N1CCc2ncc(C#Cc3ccccc3)cc2C1` [Example 55, 4-((3-(Phenylethynyl)-7,8-dihydro-1,6-naphthyridin-6(5H)-yl)sulfonyl)morpholine] are 2.7-fold, 440 nM, 325 nM and 3.8-fold.
The corresponding values for `O=S(=O)(N1CCCCCC1)N1CCc2ncc(C#Cc3ccccc3)cc2C1` [Example 56, 6-(Azepan-1-ylsulfonyl)-3-(phenylethynyl)-5,6,7,8-tetrahydro-1,6-naphthyridine] are 3.0-fold, 499 nM, 296 nM and 3.3-fold.
For `COC(=O)N1CC[C@H]2c3ncc(C#Cc4ccccc4)cc3CC[C@H]21` [Example 71, (6aR,9aR)-Methyl 3-(phenylethynyl)-6,6a,9,9a-tetrahydro-5H-pyrrolo[2,3-h]quinoline-7(8H)-carboxylate] the same measures were 2.2-fold, 241 nM, 32.7 nM and 1.3-fold.
For the molecule `COC(=O)N1CC[C@H]2c3ncc(C#Cc4cccc(F)c4)cc3CC[C@H]21` [Example 72, (6aR,9aR)-Methyl 3-((3-fluorophenyl)ethynyl)-6,6a,9,9a-tetrahydro-5H-pyrrolo[2,3-h]quinoline-7(8H)-carboxylate], the h left shift in assay [1] (setting [2]) is on record as 1.7-fold. Further, the r left shift at mGluR5 receptors (setting [3]) is reported as 1.3-fold. Besides, the EC50 at mGluR5 receptors (setting [4]) worked out at 27.3 nM.
On to `CCOC(=O)C(=O)N1CCc2ncc(C#Cc3ccccc3)cc2C1` [Example 77, Ethyl 2-oxo-2-(3-(phenylethynyl)-7,8-dihydro-1,6-naphthyridin-6(5H)-yl)acetate], for which the h left shift in assay [1] (setting [2]) was 2.8-fold. The figures for the EC50 (in assay [1] (Table A1); at mGluR5 receptors (setting [4])) were 25.4 nM and 22.1 nM, respectively. Also, on mGluR5 receptors (setting [3]), the r left shift is given as 2.8-fold.
Regarding `CN1CCN(S(=O)(=O)N2CCc3ncc(C#Cc4ccccc4)cc3C2)CC1` [Example 78, 6-((4-Methylpiperazin-1-yl)sulfonyl)-3-(phenylethynyl)-5,6,7,8-tetrahydro-1,6-naphthyridine], the h left shift in assay [1] (setting [2]) was 1.7-fold. Besides, the EC50 in assay [1] (Table A1) was determined as 2020 nM; at mGluR5 receptors (setting [4]), 2050 nM.
Turning to `CC(C)S(=O)(=O)N1CCc2ncc(C#Cc3ccccc3)cc2C1` [Example 81, 6-(Isopropylsulfonyl)-3-(phenylethynyl)-5,6,7,8-tetrahydro-1,6-naphthyridine], the h left shift in assay [1] (Table A3 (SAMs / very weak PAMs), agonist EC50 shift with 10 µM modulator or vehicle) was 1.5-fold. Also, the r left shift on mGluR5 receptors (Table A3 (SAMs / very weak PAMs), quisqualate EC50 shift with 10 µM modulator) is on record as 1.5-fold. On mGluR5 receptors (Table A3, given in brackets where Ki is n.d., read-out: r EC50), the EC50 stood at 51.1 nM.
